Reference: ChEMBL document CHEMBL1687809, “Novel apramycin resistance gene apmA in bovine and porcine methicillin-resistant Staphylococcus aureus ST398 isolates” (2011)
≈ marks a conversion by molar mass, not a printed value.

Experiments:
Assay type in all cases: functional
Staphylococcus aureus [1] = assay: Antimicrobial activity against Staphylococcus aureus RN4220 by CLSI M31-A3 method
Staphylococcus aureus [2] = assay: Antimicrobial activity against methicillin-resistant Staphylococcus aureus ST398 isolate 11 containing apmA, erm(B), tet(L), tet(M), tet(K), dfrK, aadD, mecA, blaZ resistance genes by CLSI M31-A3 method
Staphylococcus aureus [3] = assay: Antimicrobial activity against Staphylococcus aureus RN4220 carrying pAFS11-apmA, erm(B), tet(L), dfrK, aadD resistance genes by CLSI M31-A3 method

Compound	MIC (Staphylococcus aureus [1]) [µg/mL]	MIC (Staphylococcus aureus [2]) [µg/mL]	MIC (Staphylococcus aureus [3]) [µg/mL]
CN[C@@H]1[C@@H](O[C@H]2O[C@H](CO)[C@@H](N)[C@H](O)[C@H]2O)OC2C[C@@H](N)[C@@H](O[C@H]3[C@H](O)[C@@H](O)[C@H](N)C[C@@H]3N)OC2[C@@H]1O (some centres not stated) [APRAMYCIN]	1 (≈ 1.85 µM)	≥ 128	≥ 128
CCC[C@@H]1C[C@@H](C(=O)N[C@@H]([C@H]2O[C@H](SC)[C@H](O)[C@@H](O)[C@H]2O)[C@H](C)Cl)N(C)C1 [CLINDAMYCIN]	≤ 0.12	≥ 128	≥ 128
CC[C@H]1OC(=O)[C@H](C)[C@@H](O[C@H]2C[C@@](C)(OC)[C@@H](O)[C@H](C)O2)[C@H](C)[C@@H](O[C@@H]2O[C@H](C)C[C@H](N(C)C)[C@H]2O)[C@](C)(O)C[C@@H](C)C(=O)[C@H](C)[C@@H](O)[C@]1(C)O [ERYTHROMYCIN]	0.12 (≈ 0.164 µM)	≥ 64	≥ 64
NC[C@@H]1O[C@H](O[C@H]2[C@@H](O)[C@H](O[C@@H]3[C@@H](O)[C@H](N)C[C@H](N)[C@H]3O[C@H]3O[C@H](CN)[C@@H](O)[C@H](O)[C@H]3N)O[C@@H]2CO)[C@H](N)[C@@H](O)[C@@H]1O [FRAMYCETIN]	≤ 1	128 (≈ 208 µM)	32 (≈ 52.1 µM)
NC[C@H]1O[C@H](O[C@H]2[C@H](O)[C@@H](O[C@H]3O[C@H](CO)[C@@H](O)[C@H](N)[C@H]3O)[C@H](N)C[C@@H]2N)[C@H](O)[C@@H](O)[C@@H]1O [KANAMYCIN]	4 (≈ 8.26 µM)	≥ 128	64 (≈ 132 µM)
Cc1onc(-c2ccccc2)c1C(=O)N[C@@H]1C(=O)N2[C@@H]1SC(C)(C)[C@@H]2C(=O)O [OXACILLIN]	0.12 (≈ 0.299 µM)	16 (≈ 39.9 µM)	0.12 (≈ 0.299 µM)
CN(C)[C@@H]1C(O)=C(C(N)=O)C(=O)[C@@]2(O)C(O)=C3C(=O)c4c(O)cccc4[C@@](C)(O)[C@H]3C[C@@H]12 [TETRACYCLINE]	0.12 (≈ 0.27 µM)	64 (≈ 144 µM)	32 (≈ 72 µM)
COc1cc(Cc2cnc(N)nc2N)cc(OC)c1OC [TRIMETHOPRIM]	0.5 (≈ 1.72 µM)	≥ 256	≥ 256
GENTAMICIN	0.25	8	8
